Laboratory results: the supplement of paper PMC10307832

Tests used:
Motesanib = compound: CC1(C)CNc2cc(NC(=O)c3cccnc3NCc3ccncc3)ccc21 [Motesanib]; assay: relative viability (nuclei count vs DMSO), 5 days (fraction); higher = more cells survive
Outline: (§1)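 A plate was accepted only when its control CV was below 25% and the cells had doubled at least once. Viability is defined from nuclear counts as treated wells divided by vehicle wells, with the median taken across plates. That median covers lung cancer cell lines grown in 1536-well plates, dosed by pinning at five √10-spaced library-drug concentrations, and counted in MetaXpress from 4× Hoechst images after 5 days.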

[1] = compound: C[C@@]1(C(=O)Nc2ccc(F)nc2)CCCN1c1nc(Nc2cc(C3CC3)n[nH]2)c2cccn2n1; assay: as above
Outline: as §1

| Cell Line | relative viability (Motesanib; 0.01 µM) | relative viability (Motesanib; 0.03162 µM) | relative viability (Motesanib; 0.1 µM) | relative viability (Motesanib; 0.3162 µM) | relative viability (Motesanib; 1 µM) | relative viability ([1]; 0.04 µM) | relative viability ([1]; 0.1265 µM) | relative viability ([1]; 0.4 µM) | relative viability ([1]; 1.265 µM) |
| --- | --- | --- | --- | --- | --- | --- | --- | --- | --- |
| NCI-H596 | 1.2 | 0.921 | 0.928 | 0.908 | 0.964 | 1.02 | 0.846 | 0.902 | 0.939 |
| NCI-H647 | 0.827 | 1 | 0.93 | 1.06 | 0.988 | 1.05 | 0.869 | 0.848 | 0.86 |
| NCI-H650 | 0.976 | 1.04 | 0.992 | 1.07 | 0.907 | 0.841 | 0.649 | 0.784 | 0.585 |
| NCI-H661 | 0.972 | 1.02 | 0.985 | 1.04 | 0.964 | 1.04 | 1.04 | 1.01 | 0.875 |
| NCI-H727 | 0.83 | 1 | 0.9 | 0.974 | 0.849 | 0.677 | 0.38 | 0.36 | 0.414 |
| NCI-H838 | 1.04 | 0.962 | 0.985 | 1.02 | 0.932 | 0.942 | 0.76 | 0.693 | 0.736 |
| NCI-H1299 | 1.01 | 0.999 | 1.04 | 1.02 | 1.05 | 1.05 | 0.954 | 1.02 | 1.04 |
| NCI-H1355 | 1.03 | 1.02 | 0.978 | 1.04 | 1.01 | 0.96 | 0.794 | 0.797 | 0.818 |
| NCI-H1395 | 0.814 | 0.84 | 0.95 | 0.866 | 0.924 | 0.916 | 0.825 | 0.922 | 0.755 |
| NCI-H1437 | 0.964 | 0.958 | 0.998 | 1 | 0.957 | 1.04 | 0.918 | 0.679 | 0.714 |
| NCI-H1563 | 1.04 | 0.973 | 1.09 | 0.953 | 0.994 | 1.04 | 0.918 | 0.805 | 0.934 |
| NCI-H1623 | 1.06 | 1.08 | 0.901 | 0.964 | 0.926 | 0.809 | 0.79 | 0.678 | 0.622 |
| NCI-H1648 | 0.744 | 0.658 | 0.71 | 1.1 | 0.556 | 0.837 | 0.57 | 0.499 | 0.636 |
| NCI-H1650 | 1.03 | 0.792 | 1.06 | 0.947 | 0.927 | 0.894 | 0.843 | 0.798 | 0.699 |
| NCI-H1651 | 1.02 | 0.912 | 0.946 | 0.962 | 0.947 | 0.956 | 0.883 | 0.82 | 0.923 |
| NCI-H1666 | 1.04 | 0.965 | 0.976 | 0.99 | 1.08 | 0.932 | 0.83 | 0.773 | 0.753 |
| NCI-H1703 | 0.911 | 0.901 | 0.52 | 0.286 | 0.236 | 0.97 | 0.807 | 0.716 | 0.778 |
| NCI-H1734 | 0.968 | 1.01 | 0.948 | 1.07 | 1.01 | 0.855 | 0.721 | 0.651 | 0.615 |
| NCI-H1755 | 1.01 | 0.989 | 1.03 | 1.07 | 1.03 | 1.02 | 0.875 | 0.92 | 0.958 |

| Cell Line | relative viability (Motesanib; 0.01 µM) | relative viability (Motesanib; 0.03162 µM) | relative viability (Motesanib; 0.1 µM) | relative viability (Motesanib; 0.3162 µM) | relative viability (Motesanib; 1 µM) | relative viability ([1]; 0.04 µM) | relative viability ([1]; 0.1265 µM) | relative viability ([1]; 0.4 µM) | relative viability ([1]; 1.265 µM) |
| --- | --- | --- | --- | --- | --- | --- | --- | --- | --- |
| NCI-H1792 | 0.742 | 0.805 | 0.908 | 0.918 | 1.12 | 0.602 | 0.423 | 0.383 | 0.295 |
| NCI-H1793 | 0.865 | 1.02 | 0.867 | 0.963 | 0.967 | 0.974 | 0.738 | 0.67 | 1.04 |
| NCI-H1915 | 0.978 | 0.988 | 0.908 | 1.05 | 1.04 | 1 | 1.06 | 0.982 | 0.982 |
| NCI-H1944 | 0.946 | 0.961 | 0.914 | 1.05 | 0.989 | 0.768 | 0.75 | 0.63 | 0.663 |
| NCI-H1975 | 0.876 | 0.914 | 0.996 | 0.995 | 0.98 | 0.943 | 0.981 | 0.649 | 0.754 |
| NCI-H1993 | 0.993 | 0.941 | 0.977 | 0.963 | 1.06 | 0.732 | 0.696 | 0.649 | 0.686 |
| NCI-H2009 | 1.02 | 0.993 | 1.08 | 1.02 | 0.964 | 1.06 | 1.03 | 0.936 | 1 |
| NCI-H2023 | 1.02 | 0.906 | 0.955 | 1.01 | 0.979 | 0.881 | 0.613 | 0.547 | 0.394 |
| NCI-H2085 | 1.02 | 0.993 | 0.981 | 1.06 | 1.01 | 1.07 | 0.952 | 0.942 | 0.955 |
| NCI-H2087 | 1.14 | 0.887 | 1.06 | 1.25 | 1.37 | 0.954 | 0.815 | 0.868 | 0.819 |
| NCI-H2126 | 1.03 | 1.04 | 1.01 | 1.04 | 1.07 | 0.882 | 0.614 | 0.553 | 0.599 |
| NCI-H2170 | 0.928 | 0.948 | 0.939 | 1.01 | 1.02 | 0.945 | 0.994 | 0.958 | 0.976 |
| NCI-H2228 | 1.1 | 1.03 | 0.971 | 1.11 | 1.06 | 0.857 | 0.781 | 0.743 | 0.652 |
| NCI-H2342 | 0.902 | 0.976 | 1.05 | 0.928 | 1.06 | 1.16 | 0.863 | 0.805 | 0.7 |
| NCI-H2347 | 1.01 | 1.04 | 1.15 | 0.983 | 1.04 | 1.03 | 0.922 | 0.908 | 0.967 |
| NCI-H2405 | 0.676 | 0.853 | 0.975 | 1.06 | 1.01 | 0.917 | 0.816 | 0.739 | 0.671 |
| NCI-H3122 | 0.98 | 1.02 | 1.04 | 1.05 | 1.05 | 0.979 | 0.986 | 0.99 | 0.962 |
| PC-3 [JPC-3] | 1.05 | 1.03 | 1.05 | 1.03 | 1.05 | 1.04 | 0.937 | 1.02 | 1.02 |
